Data: patent publication EP4741383A1, “COMPOUND AND USE THEREOF AS ANTI-CANCER DRUG” (Tyligand Bioscience (Shanghai) Limited, priority 2023, dated 2025)
pIC50: −log10 of the molar value.

Key:
KYSE520 = test: CellTiter-Glo cell proliferation inhibition, KYSE520; format: cell-based, human; details: for IC50: Homo sapiens, KYSE-520, KYSE520 cells, 120 hours, CellTiter-Glo
[1] = target: T1, SHP2 enzyme (catalytic domain, amino acid sequence 224-528) (Homo sapiens, UniProt Q06124); test: SHP2 enzyme inhibition assay (DiFMUP substrate, fluorescence); format: biochemical; details: for pIC50: SHP2 catalytic domain, DiFMUP substrate, 30 min pre-incubation, read-out: S HP2 I C50; for SHP2 IC50 times lower than control compound 11a-1: relative to 11a-1, IC50 = 0.108 µM
T1 construct: purchased GenScript
T1 sequence (Q06124 224-528): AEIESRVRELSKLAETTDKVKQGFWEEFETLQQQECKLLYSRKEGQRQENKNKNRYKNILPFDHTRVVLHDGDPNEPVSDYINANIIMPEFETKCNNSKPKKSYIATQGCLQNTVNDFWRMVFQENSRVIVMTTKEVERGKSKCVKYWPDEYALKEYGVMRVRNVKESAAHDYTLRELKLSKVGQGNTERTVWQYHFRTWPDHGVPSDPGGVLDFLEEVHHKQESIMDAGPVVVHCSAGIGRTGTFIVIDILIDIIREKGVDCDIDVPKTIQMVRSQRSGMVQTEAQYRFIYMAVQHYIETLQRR
Summary of the method: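 SHP2 catalytic domain (aa 224-528) preincubated 30 min at room temperature with compounds (10-point 3-fold series) in HEPES pH 7.2 buffer with NaCl, EDTA, DTT, BSA, Brij35. DiFMUP from 50 µM working solution added, 5 min reaction; fluorescence 340/450 nm; IC50 from nonlinear dose-response fit.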

SMILES | IC50 (KYSE520) | pIC50 [1] | SHP2 IC50 times lower than control compound 11a-1 [1] | IC50 against KYSE-520 cells, fold lower than 11a-1 (KYSE520; relative to 11a-1 (1.23 µM))
CC1(n2c(-c3ccc(NC(=O)C(=O)Nc4ccc(-c5cnn(C6COC6)c5)cc4)cc3)cc3cc(F)c(-c4nnn[nH]4)cc32)CC1 [Example 6] | 0.065 µM | 7.14 | – | –
O=C(Nc1ccc(-c2oc3cc(F)c(-c4nnn[nH]4)cc3c2C2CCC2)cc1)C(=O)Nc1ccc(N2CCC3(CCOC3)CC2)cc1 [Example 125] | 0.68 µM | 7.29 | – | –
CC1(n2c(-c3ccc(NC(=O)C(=O)Nc4ccc(N5CCC6(CCC(O)CC6)CC5)cc4)cc3)cc3cc(F)c(-c4nnn[nH]4)cc32)CCC1 [Example 109] | 0.107 µM | 7.21 | – | –
O=C(Nc1ccc(-c2cc3cc(F)c(-c4nnn[nH]4)cc3n2C2CC2)cc1)C(=O)Nc1ccc(N2CCC3(CCOC3)CC2)cc1 [Example 69] | 0.189 µM | 7.34 | – | –
O=C(Nc1ccc(-c2cc3cc(F)c(-c4nnn[nH]4)cc3n2C2CCC2)cc1)C(=O)Nc1ccc(N2CCC3(CCC(O)C3)CC2)cc1 (stereo not shown) [Example 100] | 0.057 µM | 7.32 | – | –
O=C(Nc1ccc(-c2ccsc2)cc1)C(=O)Nc1ccc(-c2sc3cc(F)c(-c4nnn[nH]4)cc3c2C2CCC2)cc1 [Example 133] | 0.688 µM | 7.16 | – | –
CC1(O)CC2(CCN(c3ccc(NC(=O)C(=O)Nc4ccc(-c5cc6cc(F)c(-c7nnn[nH]7)cc6n5C5CCC5)cc4)cc3)CC2)C1 [Example 94] | 0.115 µM | 7.51 | 3-4 times | –
O=C(Nc1ccc(-c2cc3cc(F)c(-c4nnn[nH]4)cc3n2C2CCC2)cc1)C(=O)Nc1ccc(N2CCC3(CCCOC3)CC2)cc1 [Example 74] | 0.116 µM | 7.19 | – | –
O=C(Nc1ccc(-c2cc3cc(F)c(-c4nnn[nH]4)cc3n2C2CCC2)cc1)C(=O)Nc1ccc(N2CC3COCC3C2)cc1 (stereo not shown) [Example 114] | 0.118 µM | 7.14 | – | –
Cn1c(-c2cccc(NC(=O)C(=O)Nc3ccc(-c4ccsc4)cc3)c2)c(I)c2cc(C(=O)O)c(O)cc21 [Example 11a-1, reference compound] | 1.23 µM | 6.97 | – | –
O=C(Nc1ccc(-c2cc3cc(F)c(-c4nnn[nH]4)cc3n2C2CCC2)cc1)C(=O)Nc1ccc(N2CCC3(CCOC3)CC2)cc1 [Example 67] | 0.086 µM | 7.47 | 3-4 times | –
CC1(O)CC2CN(c3ccc(NC(=O)C(=O)Nc4ccc(-c5cc6cc(F)c(-c7nnn[nH]7)cc6n5C5CCC5)cc4)cc3)CC2C1 (stereo not shown) [Example 117] | 0.104 µM | 7.15 | – | –
CC1(CO)CCN(c2ccc(NC(=O)C(=O)Nc3ccc(-c4cc5cc(F)c(-c6nnn[nH]6)cc5n4C4CCC4)cc3)cc2)C1 (stereo not shown) [Example 16] | 0.151 µM | 7.32 | – | –
Cn1cc(-c2ccc(NC(=O)C(=O)Nc3ccc(-c4cc5cc(F)c(-c6nnc(C(F)(F)F)[nH]6)cc5n4C4CCC4)cc3)cc2)cn1 [Example 124] | 0.661 µM | 6.15 | – | –
CC1(O)CCC2(CCN(c3ccc(NC(=O)C(=O)Nc4ccc(-c5cc6cc(F)c(-c7nnn[nH]7)cc6n5C5CCC5)cc4)cc3)CC2)CC1 [Example 110] | 0.109 µM | 7.11 | – | –
O=C(Nc1ccc(-c2cc3cc(F)c(-c4nnn[nH]4)cc3n2C2CCC2)cc1)C(=O)Nc1ccc(N2CCC(CCO)CC2)cc1 [Example 25] | 0.056 µM | 7.23 | – | –
CC(O)C1CCN(c2ccc(NC(=O)C(=O)Nc3ccc(-c4cc5cc(F)c(-c6nnn[nH]6)cc5n4C4CCC4)cc3)cc2)CC1 (stereo not shown) [Example 29] | 0.076 µM | 7.32 | – | –
O=C(Nc1ccc(-c2cc3cc(F)c(-c4nnn[nH]4)cc3n2C2CCC2)cc1)C(=O)Nc1ccc(N2CCC(C3COC3)CC2)cc1 [Example 20] | 0.036 µM | 7.57 | 3-4 times | 34 fold
O=C(Nc1ccc(-c2cc3cc(F)c(-c4nnn[nH]4)cc3n2C2CCC2)cc1)C(=O)Nc1ccc(N2CCC(CCO)C2)cc1 (stereo not shown) [Example 14] | 0.113 µM | 7.35 | – | –
CC(C)(O)C1CCN(c2ccc(NC(=O)C(=O)Nc3ccc(-c4cc5cc(F)c(-c6nnn[nH]6)cc5n4C4CCC4)cc3)cc2)CC1 [Example 33] | 0.042 µM | 7.39 | – | –
O=C(Nc1ccc(-c2cc3cc(F)c(-c4nnn[nH]4)cc3n2C2CCC2)cc1)C(=O)Nc1ccc(N2CCC3(CCOCC3)CC2)cc1 [Example 76] | 0.096 µM | 7.40 | – | –
O=C(Nc1ccc(-c2cc3cc(F)c(-c4nnn[nH]4)cc3n2C2CCC2)cc1)C(=O)Nc1ccc(N2CCC3(CCC(O)CC3)CC2)cc1 [Example 108] | 0.167 µM | 7.52 | 3-4 times | –
